Source: patent publication US5739163A, “Aromatic compounds containing basic and acidic termini useful as fibrinogen receptor antagonists” (The DuPont Merck Pharmaceutical Company, priority 1996, dated 1998)
Counter-ions that a name gives are not always drawn.

System: agonist-induced platelet aggregation
Assay: Platelet Aggregation Assay
Assay type: cell-based
Settings: Homo sapiens, Platelet, human platelet-rich plasma, class symbols
Method: Platelet Aggregation Assay: Venous blood was obtained from the arm of a healthy human donor who was drug-free and aspirin-free for at least two weeks prior to blood collection. Blood was collected into 10 mL citrated Vacutainer tubes. The blood was centrifuged for 15 minutes at 150×g at room temperature, and platelet-rich plasma (PRP) was removed. The remaining blood was centrifuged for 15 minutes at 1500×g at room temperature, and platelet-poor plasma (PPP) was removed. […] The results are expressed as % inhibition of agonist-induced platelet aggregation. For the IC50 evaluation, the test compounds were added at various concentrations prior to the activation of the platelets.

SMILES	IC50 [µM]
CCOc1cc(OCCN)cc(C(=O)/C=C/c2ccc(OCC(=O)O)cc2)c1 [Example 21, (E)-4-[3-((3-(2-Aminoethoxy)-5-ethoxyphenyl))-3-oxo-1-propenyl]phenoxyacetic acid.trifluoroacetate]	10 to 50
COc1cc(OCC(=O)O)ccc1/C=C/C(=O)c1cccc(OCCN)c1 [Example 65, (E)-4-[3-((3-(2-Aminoethoxy)phenyl))-3-oxo-1-propenyl]-3-methoxyphenoxyacetic acid.hydrochloride]	10 to 50
NCCOc1cccc(C(=O)/C=C/c2ccc(OCC(=O)O)c(-c3ccccc3)c2)c1 [Example 75c]	51 to 100
NCc1cccc(C(=O)/C=C/c2ccc(OCC(=O)O)c(OCC(=O)O)c2)c1 [Example 76]	51 to 100
COc1cc(/C=C/C(=O)c2cccc(CNC(=N)N)c2)ccc1OCC(=O)O [Example 112, (E)-4-[3-((3-(guanidinylmethyl)phenyl))-3-oxo-1-propenyl]-2-methoxyphenoxyacetic acid.trifluoroacetate]	10 to 50
COc1cc(/C=C/C(=O)c2cccc(N3CCNCC3)c2)ccc1OCC(=O)O [Example 120]	< 10
CNCCOc1cccc(C(=O)/C=C/c2ccc(OCC(=O)O)c(OC)c2)c1 [Example 121, (E)-4-[[3-[3-((2-(methylamino)ethoxy))-phenyl]-3-oxo-1-propenyl]]-2-methoxyphenoxyacetic acid.trifluoroacetate]	10 to 50
NCCOc1cccc(C(=O)CCc2ccc(OCC(=O)O)cc2)c1 [Example 126, 4-[3-((3-(2-Aminoethoxy)phenyl))-3-oxo-1-propyl]phenoxyacetic acid.hydrochloride]	51 to 100

More lines, now with the values ahead:

IC50 [µM]	SMILES
10 to 50	CCOC(=O)c1cc(/C=C/C(=O)c2cccc(OCCN)c2)ccc1OCC(=O)O [Example 2, (E)-Ethyl 5-[3-((3-(2-aminoethoxy)phenyl))-3-oxo-1-propenyl]-2-(carboxymethoxy)benzoate.trifluoroacetate]
< 10	C=CCOc1ccc(OCCN)cc1C(=O)/C=C/c1ccc(OCC(=O)O)c(C(=O)OCC)c1 [Example 3, (E)-Ethyl 5-[3-((2-(1-prop-2-enyloxy)-5-(2aminoethoxy)phenyl))-3-oxo-1-propenyl]-2-(carboxymethoxy)benzoate.trifluoroacetate]
10 to 50	CCOC(=O)c1cc(/C=C/C(=O)c2cc(OCC)cc(OCCN)c2)ccc1OCC(=O)O [Example 20, (E)-Ethyl 5-[3-((3-(2-aminoethoxy)-5-ethoxyphenyl))-3-oxo-1-propenyl]-2-(carboxymethoxy)benzoate.trifluoroacetate]
< 10	CCOc1cc(/C=C/C(=O)c2cccc(OCCN)c2)ccc1OCC(=O)O [Example 22, (E)-4-[3-((3-(2-Aminoethoxy)phenyl))-3-oxo-1-propenyl]-2-ethoxyphenoxyacetic acid.trifluoroacetate]
< 10	COc1cc(/C=C/C(=O)c2cccc(OCCN)c2)ccc1OCC(=O)O [Example 23]
10 to 50	CCCCOC(=O)c1cc(/C=C/C(=O)c2cccc(OCCN)c2)ccc1OCC(=O)O [Example 24, (E)-n-Butyl 5-[3-((3-(2-aminoethoxy)-phenyl))-3-oxo-1-propenyl]-2-(carboxymethoxy)benzoate-trifluoroacetate]
< 10	NCCOc1cccc(C(=O)/C=C/c2ccc(OCC(=O)O)c(C(=O)OCC(=O)O)c2)c1 [Example 25, (E)-(Carboxymethyl) 5-[3-((3-(2aminoethoxy)-phenyl))-3-oxo-1-propenyl]-2-(carboxymethoxy)benzoate.trifluoroacetate]
< 10	NCCOc1cccc(C(=O)/C=C/c2ccc(OCC(=O)O)c([N+](=O)[O-])c2)c1 [Example 26, (E)-4-[3-((3-(2-Aminoethoxy)phenyl))-3-oxo-1-propenyl]-2-nitrophenoxyacetic acid.trifluoroacetate]
51 to 100	CCOC(=O)COC(=O)c1cc(/C=C/C(=O)c2cccc(OCCN)c2)ccc1OCC(=O)O [Example 27, (E)-(2-Ethoxy-2-oxoethyl) 5-[3-((3-(2-amino-ethoxy)phenyl))-3-oxo-1-propenyl]-2-(carboxymethoxy)-benzoate.trifluoroacetate]
51 to 100	NCCOc1cccc(C(=O)/C=C/c2ccc(OCC(=O)O)c(C(=O)OCc3ccccc3)c2)c1 [Example 28, (E)-Benzyl 5-[3-((3-(2-aminoethoxy)phenyl))-3-oxo-1-propenyl]-2-(carboxymethoxy)benzoate.trifluoroacetate]
10 to 50	NCCOc1cccc(C(=O)/C=C/c2ccc(OCC(=O)O)c(OCC(=O)O)c2)c1 [Example 29, (E)-4-[3-((3-(2-Aminoethoxy)phenyl))-3-oxo-1-propenyl]benzene-1,2-bis(oxyacetic acid).trifluoroacetate]
10 to 50	COC(=O)c1cc(/C=C/C(=O)c2cccc(OCCN)c2)ccc1OCC(=O)O [Example 30]
< 10	NCCOc1ccc(OCc2ccccc2)c(C(=O)/C=C/c2ccc(OCC(=O)O)c(C(=O)OCC(=O)O)c2)c1 [Example 43]
< 10	C=CCOc1ccc(OCCN)cc1C(=O)/C=C/c1ccc(OCC(=O)O)c(C(=O)OCC(=O)O)c1 [Example 44, (E)-(Carboxymethyl) 5-((3-((2-(1-prop-2-enyloxy)-5-(2-aminoethoxy)phenyl))-3-oxo-1-propenyl))-2-(carboxymethoxy)benzoate.trifluoroacetate]
51 to 100	CCOc1cc(/C=C/C(=O)c2cccc(CCN)c2)ccc1OCC(=O)O [Example 91, (E)-4-[3-((3-(2-Aminoethyl)phenyl))-3-oxo-1-propenyl]-2-ethoxyphenoxyaceticacid trifluoroacetate]

Same assay, conditions: Homo sapiens, Platelet, human platelet-rich plasma, numeric bound

SMILES	IC50 [µM]
NCCc1cccc(C(=O)/C=C/c2ccc(OCC(=O)O)c([N+](=O)[O-])c2)c1 [Example 93]	> 100
NCc1cccc(C(=O)/C=C/c2ccc(OCC(=O)O)cc2)c1 [Example 125a]	> 100
NCCc1cccc(C(=O)/C=C/c2ccc([N+](=O)[O-])c(OCC(=O)O)c2)c1 [Example 240]	> 100
NCCCCc1ccc(C(=O)/C=C/c2ccc(OCC(=O)O)cc2)cc1 [Example 241]	> 100
NCCOc1cccc(C(=O)/C=C/c2ccc(OCCC(=O)O)cc2)c1 [Example 242]	> 100
NCCCCc1ccc(C(=O)/C=C/c2ccc(CCC(=O)O)cc2)cc1 [Example 243]	> 100
NCc1cccc(C(=O)/C=C/c2cccc(OCC(=O)O)c2)c1 [Example 244]	> 100
NCc1ccc(C(=O)/C=C/c2ccc(CCC(=O)O)cc2)cc1 [Example 245]	> 100
CN(C)CCOc1cccc(C(=O)/C=C/c2cccc(C(=O)O)c2)c1 [Example 248]	> 100
NCc1ccc(C(=O)/C=C/c2ccc(OCC(=O)O)c([N+](=O)[O-])c2)cc1 [Example 250]	> 100

Continued, values first:

IC50 [µM]	SMILES
> 100	C=CCc1cc(/C=C/C(=O)c2cccc(OCCN)c2)cc(C(=O)OC)c1OCC(=O)O [Example 75b]
> 100	COc1cc(C(=O)/C=C/c2cccc(OCCN)c2)ccc1OCC(=O)O [Example 211, (E)-4-[3-((3-(2-aminoethoxy)phenyl))-1-oxo-prop-2-enyl]-2-methoxyphenoxyacetic acid.trifluoroacetate]
> 100	CCOC(=O)c1cc(/C=C/C(=O)c2cccc(C#CCN)c2)ccc1OCC(=O)O [Example 247]
> 100	CCOC(=O)c1cc(/C=C/C(=O)c2ccccc2OCCCN)ccc1OCC(=O)O [Example 251]
> 100	COc1ccc(/C=C/C(=O)c2cccc(OCCN)c2)cc1CC(=O)O [Example 252]

Same assay, conditions: human platelet-rich plasma, 100 μM

SMILES	inhibition at 100 µM [%]
NCCc1cccc(C(=O)/C=C/c2ccc(OCC(=O)O)c([N+](=O)[O-])c2)c1 [Example 93]	21
NCc1ccc(C(=O)/C=C/c2ccc(CCC(=O)O)cc2)cc1 [Example 245]	19
CN(C)CCOc1cccc(C(=O)/C=C/c2cccc(C(=O)O)c2)c1 [Example 248]	13
CCOC(=O)c1cc(/C=C/C(=O)c2ccccc2OCCCN)ccc1OCC(=O)O [Example 251]	18
COc1ccc(/C=C/C(=O)c2cccc(OCCN)c2)cc1CC(=O)O [Example 252]	38

Same assay, conditions: human platelet-rich plasma, class symbols

IC50 [µM]	SMILES
10 to 50	NCCOc1cccc(C(=O)/C=C/c2ccc(OCC(=O)O)cc2)c1 [Example 1, (E)-4-[3-((3-(2-Aminoethoxy)phenyl))-3-oxo-1-propenyl]phenoxyacetic acid.hydrochloride]
51 to 100	NCCOc1cccc(C(=O)/C=C/c2ccc(OCC(=O)O)cc2)c1 [Example 75a]

SMILES	IC50 [µM]
CCOC(=O)c1cc(/C=C/C(=O)c2cccc(CC(C)N)c2)ccc1OCC(=O)O (stereo not shown) [Example 101, (E)-Ethyl 5-[3-((3-(2-aminopropyl)phenyl))-3-oxo-1-propenyl]-2(carboxymethoxy)benzoate.trifluoroacetate]	10 to 50
